In patent US7671058B2, “N-(3,4-disubstituted phenyl) salicylamide derivatives” (Institute of Medicinal Molecular Design, Inc., priority 2006, dated 2010):

What was measured:
STAT6 = STAT6 inhibition test: (GLS)x8/pTA-Luc luciferase reporter in U2-OS cells stimulated with human IL-4; assay type: cell-based; conditions: human IL-4 40 ng/mL; for Inhibition Rate of STAT6 (%): compound 2 μM, 8 hours; for IC50: from inhibition rates at 1, 0.1, 0.01 and 0.001 μM, read-out: IC50 against activation of STAT6
Text: (1) Construction of a STAT6 Reporter Plasmid
The Oligonucleotides (SEQ ID: 1, 2) containing two copies of STAT6 binding sequences (refer to J. Biol. Chem., vol. 276, No. 9, pp. 6675-6688 (2001).) were synthesized, and integrated into the enhancer region of the reporter plasmid pTA-Luc Vector (CLONTECH Laboratories, Inc.) at the restriction enzyme BgIII site.
When the oligonucleotide is integrated in positive direction into the plasmid, the upstream BglII site is not reconstructed. Therefore, STAT6 binding sequences can be increased by repeating integration of the oligonucleotide at the restriction enzyme BglII site.
In the present test, a plasmid including eight integrated STAT6 binding sequences was constructed and provided for the reporter assay as (GLS)x8/pTA-Luc. Confirmation of the sequences was carried out using an automated fluorescence sequencer (Model 310 (Applied Biosystems)).
(2) Transfection into U2-OS Cells and Inhibition Test for STAT6 Activation
U2-OS cells were seeded to at 2×10^4 cells/well in 96-well culture plates, and transfection was carried out using FuGENE 6 Transfection Reagent (Roche Diagnostics GmbH). The procedures of the transfection are shown below.
11 μg of reporter plasmid ((GLS)x8/pTA-Luc) and 1.1 μg of pCMV β (CLONTECH Laboratories, Inc.) were mixed in 1.1 mL of OPTI-MEM I medium (GIBCO BRL) (solution (A)).
33 μL of FuGENE 6 Transfection Reagent was mixed in 1.1 mL of OPTI-MEM I medium (solution (B)).
(§1) The above solution (A) and solution (B) were mixed, let them stand for 15 minutes at room temperature, then, 8.8 mL of OPTI-MEM I medium was added and diluted.
To this transfection solution, U2-OS cell suspension (11 mL) in McCoy's 5A medium (GIBCO BRL) containing 10% Fetal Bovine Serum (FBS; GIBCO BRL) at 2×10^5 cells/mL was added and well mixed.
(§2) 0.2 mL of the above solution was dispensed into each well of 96-well culture plates, and incubated for 24 hours (37° C., 5% CO2).
After removal of 50 μL of medium from each well, 50 μL of McCoy's 5A medium (serum-free) containing compound, of the present application was added to a final concentration of 0.01˜2 μM (0.001, 0.01, 0.1, 0.5, 1 or 2 μM), and the plates were incubated for 2 hours (37° C., 5% CO2).
10 μL of the McCoy's 5A medium (serum-free) containing human IL-4 (R&D Systems, Inc) was added to each well to achieve a final concentration of 40 ng/mL, and incubated for 8 hours (37° C., 5% CO2).
(§3) Medium was completely removed and plates were preserved at −80° C. until measurements.
(§4) Cell lysates were prepared by adding 40 μL of Passive Lysis Buffer (Promega Corporation) to each well.
(§5) 10 μL of each lysate was transferred to 96-well white plates. 50 μL of PicaGene L.T.2.0 (TOYO INK MFG. CO., LTD.) was added to each well, then, luminescence was measured after leaving for 10 minutes at room temperature.
(§6) 10 μL of each lysate was transferred to 96-well black plates. 100 μL of Z Buffer (preparation method will be explained later) was added to each well, and fluorescence was measured immediately.
(§7) 10 μL of each lysate was transferred to 96-well clear plates. 200 μL of protein assay reagent prepared from the BCA Protein Assay Kit (Pierce Biotechnology, Inc.) was added to each well, and, absorbance was measured after incubation for 30 minutes at 37° C.
(§8) For measurements of luminescence, fluorescence, and absorbance, microplate reader GENios (TECAN G.M.B.H.) was used.
(4) Calculation of Inhibition Rate
Luminescence values that show the degree of activation by IL-4 stimulation were normalized by β-gal values that show transfection efficiency. Using the normalized values, the following calculations were carried out using the luminescence values increased by IL-4 stimulation. Inhibition Rate(%)=[…] E: In the presence of the compound of the present application, increased luminescence value by IL-4 stimulation C: Without the presence of the compound of the present application, increased luminescence value by IL-4 stimulation […]

NF-κB = NF-κB inhibition test: pNFκB-Luc luciferase reporter in U2-OS cells stimulated with human TNF α; assay type: cell-based; conditions: human TNF α 10 ng/mL; for Inhibition Rate of NF-κB (%): compound 2 μM, 8 hours; for IC50: from inhibition rates at 1, 0.1, 0.01 and 0.001 μM, read-out: IC50 against activation of NF-κB
Procedure: (1) Transfection to U2-OS Cells and Inhibition Test of Activation
U2-OS cells were seeded at 2×10^4 cells/well in 96-well culture plate, and transfection was carried out using FuGENE 6 Transfection Reagent (Roche Diagnostics GmbH). The procedures of the transfection are shown below.
11 μg of reporter plasmid (pNFκB-Luc; Stratagene Corporation) and 1.1 μg of pCMV β (CLONTECH Laboratories, Inc.) were mixed in 1.1 mL of OPTI-MEM I medium (GIBCO BRL) (solution (A)).
[…] of FuGENE 6 Transfection Reagent was mixed in 1.1 mL of OPTI-MEM I medium (solution (B)).
as §1
To this transfection solution, U2-OS cell suspension (11 mL) in McCoy's 5A medium (GIBCO BRL) containing 10% Fetal Bovine Serum (FBS; GIBCO BRL) at […] was added and well mixed.
as §2
After removal of 50 μL of medium from each well, 50 μL of McCoy's 5A medium (serum-free) containing compound of the present application was added to a final concentration of 0.01˜2 μM (0.001, 0.01, 0.1, 0.5, 1 or 2 μM), and the plates were incubated for 2 hours (37° C., 5% CO2).
10 μL of the McCoy's 5A medium (serum-free) containing human TNF α (PEPROTECH EC Ltd.) was added to each well to achieve a final concentration of 10 ng/mL, and incubated for 8 hours (37° C., 5% CO2).
as §3, §4, §5, §6, §7, §8
(3) Calculation of Inhibition Rate
Luminescence values that show the degree of activation by TNF α stimulation were normalized by β-gal values that show transfection efficiency. Using the normalized values, the following calculation was carried out using the luminescence values that increased by TNF α stimulation. Inhibition Rate(%)=[…] E: In the presence of the compound of the present application, increased luminescence values by TNF α stimulation C: Without the presence of the compound of the present application, increased luminescence values by TNF α, stimulation
The values of protein assay by BCA reagent were used for a simple assessment of cytotoxicity, and not used for the calculation of inhibition rates.
NF-κB Inhibition Rates are shown below. The values in parentheses in the table represent the concentration of the compound of the present application.
NF-κB inhibition rates where the concentrations of the compound of the present application were 1, 0.1, 0.01 and 0.001 μM were calculated, and the 50% inhibitory concentrations (IC50) of the compounds of the present application against activation of NF-κB were evaluated.

| SMILES | IC50 (STAT6) | IC50 (NF-κB) | Inhibition Rate of STAT6 (%) (STAT6) | Inhibition Rate of NF-κB (%) (NF-κB) |
| --- | --- | --- | --- | --- |
| CCC1CN(c2ccc(NC(=O)c3cc(Cl)ccc3O)cc2F)CCN1.Cl (centres unmarked) [compound 72] |  |  | 37 (2 μM) % | 41 (2 μM) % |
| Cl.NC1CCN(c2ccc(NC(=O)c3cc(Cl)ccc3O)cc2C(F)(F)F)CC1 [compound 74] | 105 nM | 66.5 nM | 80 (2 μM) % | 84 (2 μM) % |
| Cl.NC1CCN(c2ccc(NC(=O)c3cc(Cl)ccc3O)cc2Cl)CC1 [compound 75] | 76 nM | 35.8 nM | 76 (2 μM) % | 78 (2 μM) % |
| Cl.O=C(Nc1ccc(N2CCCNCC2)c(C(F)(F)F)c1)c1cc(Cl)ccc1O [compound 76] | 32.9 nM | 20 nM | 95 (2 μM) % | 94 (2 μM) % |
| CN1CCN(c2ccc(NC(=O)c3cc(Cl)ccc3O)cc2C#N)CC1 [compound 79] |  |  | 59 (2 μM) % | 59 (2 μM) % |
| Cl.O=C(Nc1ccc(N2CCCNCC2)c(Cl)c1)c1cc(Cl)ccc1O [compound 81] | 10.9 nM | 17.8 nM | 92 (2 μM) % | 90 (2 μM) % |
| CC1CCC(C)N1c1ccc(NC(=O)c2cc(Cl)ccc2O)cc1F.Cl (centres unmarked) [compound 83] |  |  | 80 (2 μM) % | 59 (2 μM) % |
| CC1CCC(C)N1c1ccc(NC(=O)c2cc(Cl)ccc2O)cc1F (centres unmarked) [compound 84] |  |  | 83 (2 μM) % | 61 (2 μM) % |
| CC1CN(c2ccc(NC(=O)c3cc(Cl)ccc3O)cc2F)C(C)CN1.Cl.Cl (centres unmarked) [compound 85] |  |  | 72 (2 μM) % | 79 (2 μM) % |
| CC1CNCCN1c1ccc(NC(=O)c2cc(Cl)ccc2O)cc1F.Cl (centres unmarked) [compound 88] | 25.5 nM | 21.9 nM | 90 (2 μM) % | 90 (2 μM) % |
| CCC1CNCCN1c1ccc(NC(=O)c2cc(Cl)ccc2O)cc1F.Cl (centres unmarked) [compound 89] |  |  | 62 (2 μM) % | 62 (2 μM) % |
| CN1CCN(c2ccc(NC(=O)c3cc(C#N)ccc3O)cc2F)CC1.Cl [compound 90] |  |  | 11 (2 μM) % | 18 (2 μM) % |

Second part, led by results:

| IC50 (STAT6) | IC50 (NF-κB) | SMILES | Inhibition Rate of STAT6 (%) (STAT6) | Inhibition Rate of NF-κB (%) (NF-κB) |
| --- | --- | --- | --- | --- |
| 5.32 nM | 16 nM | Cl.NC1CCN(c2ccc(NC(=O)c3cc(Br)ccc3O)cc2F)CC1 [compound 67] | 94 (2 μM) % | 93 (2 μM) % |
| 10.6 nM | 30.3 nM | CN1CCN(c2ccc(NC(=O)c3cc(Br)ccc3O)cc2F)CC1 [compound 69] | 79 (2 μM) % | 76 (2 μM) % |
| 3.36 nM | 8.41 nM | Cl.NC1CCN(c2ccc(NC(=O)c3ccc(Cl)cc3O)cc2F)CC1 [compound 71] | 92 (2 μM) % | 94 (2 μM) % |
| 7.29 nM | 8.44 nM | CN1CCCN(c2ccc(NC(=O)c3ccc(Cl)cc3O)cc2F)CC1 [compound 77] | 90 (2 μM) % | 89 (2 μM) % |
| 2.23 nM | 8.11 nM | O=C(Nc1ccc(N2CCCNCC2)c(F)c1)c1ccc(Cl)cc1O [compound 80] | 91 (2 μM) % | 89 (2 μM) % |
| 10.8 nM | 7.62 nM | CN1CCCN(c2ccc(NC(=O)c3cc(Br)ccc3O)cc2F)CC1 [compound 86] | 93 (2 μM) % | 93 (2 μM) % |
| 18.3 nM | 11.7 nM | O=C(Nc1ccc(N2CCCNCC2)c(F)c1)c1cc(Br)ccc1O [compound 87] | 91 (2 μM) % | 93 (2 μM) % |
